From US11459339B2, “Biaryl derivative, preparation method thereof and pharmaceutical application thereof” (Abbisko Therapeutics Co., Ltd., priority 2018, dated 2022)

Legend:
[1] = target: interaction between PD-1 and PD-L1 expressed on cell surfaces (Homo sapiens (Human), UniProt Q9NZQ7); test: Jurkat reporter gene cellular assay (Jurkat/NF-κB-luc/PD1 cells cocultured with Raji-PD-L1 cells, OKT-3 stimulation); type: cell-based; details: NF-κB-luc reporter activation fold, 6 hrs; read-out: Cell Activity EC50
Procedure, shortened: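 Jurkat cells stably expressing human PD-1 and NF-κB-luciferase were cocultured with Raji cells stably expressing human PD-L1 under OKT-3 stimulation, with compound present. Luminescence was read after 6 h.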

[2] = target: interaction between PD-1 and PD-L1 (Homo sapiens (Human), UniProt Q9NZQ7); test: PD1-PDL1 HTRF binding activity test (Cisbio PD-1/PD-L1 binding assay kit); details: read-out: PD1-PDL1 HTRF Binding Activity IC50
Chain of interaction between PD-1 and PD-L1 (Q9NZQ7 19-238): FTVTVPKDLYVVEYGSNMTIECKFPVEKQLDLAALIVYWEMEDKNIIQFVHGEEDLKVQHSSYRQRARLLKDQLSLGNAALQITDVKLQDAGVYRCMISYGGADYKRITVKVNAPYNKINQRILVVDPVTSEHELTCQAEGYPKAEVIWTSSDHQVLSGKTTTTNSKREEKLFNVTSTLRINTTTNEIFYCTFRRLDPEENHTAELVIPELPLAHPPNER

Chain of interaction between PD-1 and PD-L1 expressed on cell surfaces (Q9NZQ7 19-290): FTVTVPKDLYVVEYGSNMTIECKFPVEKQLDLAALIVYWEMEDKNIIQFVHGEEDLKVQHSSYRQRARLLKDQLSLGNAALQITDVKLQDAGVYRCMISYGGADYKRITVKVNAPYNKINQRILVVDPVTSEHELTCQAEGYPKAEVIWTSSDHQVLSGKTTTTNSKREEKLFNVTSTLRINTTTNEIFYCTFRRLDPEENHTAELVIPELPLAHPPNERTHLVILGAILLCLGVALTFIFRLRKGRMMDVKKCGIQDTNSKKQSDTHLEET

Row | Compound | EC50 [1] | IC50 [2]
1 | CCOC(=O)C[C@@H](NCc1cnc(C(=O)Nc2cccc(-c3cccc(NC(=O)c4cc(C5CC5)c(CN[C@H](CC(=O)OCC)C(=O)OCC)cn4)c3C)c2C)cc1C1CC1)C(=O)OCC [Example 117, tetraethyl 2,2′-((((((2,2′-dimethyl-[1,1′-biphenyl]-3,3′-diyl)bis(azanediyl))bis(carbonyl))bis (4-cyclopropylpyridine-6,3-diyl))bis (methylene))bis(azanediyl))(2R,2′R)-disuccinate] | > 10000 nM | > 400 nM
2 | CCOC(=O)C(NCc1cnc(C(=O)Nc2cccc(-c3cccc(NC(=O)c4cc(C5CC5)c(CNC(C(=O)OCC)C(=O)OCC)cn4)c3C)c2C)cc1C1CC1)C(=O)OCC [Example 119, tetraethyl 2,2′-((((((2,2′-dimethyl-[1,1′-biphenyl]-3,3′-diyl)bis(azanediyl))bis(carbonyl))bis(4-cyclopropylpyridine-6,3-diyl))bis(methylene))bis(azanediyl))dimalonate] | > 10000 nM | > 400 nM
3 | CCOC(=O)[C@H](C)NCc1cnc(C(=O)Nc2cccc(-c3cccc(NC(=O)c4cc(C5CC5)c(CN[C@@H](C)C(=O)OCC)cn4)c3C)c2C)cc1C1CC1 [Example 123] | 2410 nM | 22 nM
4 | CCOC(=O)[C@@H](NCc1cnc(C(=O)Nc2cccc(-c3cccc(NC(=O)c4cc(C5CC5)c(CN[C@H](C(=O)OCC)C(C)C)cn4)c3C)c2C)cc1C1CC1)C(C)C [Example 125, diethyl 2,2′-((((((2,2′-dimethyl-[1,1′-biphenyl]-3,3′-diyl)bis(azanediyl))bis(carbonyl))bis(4-cyclopropylpyridine-6,3-diyl))bis(methylene))bis(azanediyl)) (2S,2′S)-bis(3-methylbutanoate)] | > 10000 nM | > 2000 nM
5 | CCOC(=O)C1(NCc2cnc(C(=O)Nc3cccc(-c4cccc(NC(=O)c5cc(C6CC6)c(CNC6(C(=O)OCC)CC6)cn5)c4C)c3C)cc2C2CC2)CC1 [Example 127, diethyl 1,1′-((((((2,2′-dimethyl-[1,1′-biphenyl]-3,3′-diyl)bis(azanediyl))bis(carbonyl))bis(4-cyclopropylpyridine-6,3-diyl))bis(methylene))bis(azanediyl)) bis(cyclopropane-l-carboxylate)] | > 10000 nM | 113 nM
6 | COC(=O)[C@@H]1CCN(Cc2cnc(C(=O)Nc3cccc(-c4cccc(NC(=O)c5cc(C6CC6)c(CN6CC[C@@H](C(=O)OC)C6)cn5)c4C)c3C)cc2C2CC2)C1 [Example 131, dimethyl 1,1′-(((((2,2′-dimethyl-[1,1′-biphenyl]-3,3′-diyl)bis(azanediyl))bis (carbonyl))bis(4-cyclopropylpyridine-6,3-diyl))bis(methylene))(3R,3′R)-bis (pyrrolidine-3-carboxylate)] | 2580 nM | 21.8 nM
7 | Cc1c(NC(=O)c2cc(C3CC3)c(CN3CC[C@@H](C(=O)O)C3)cn2)cccc1-c1cccc(NC(=O)c2cc(C3CC3)c(CN3CC[C@@H](C(=O)O)C3)cn2)c1C [Example 132, (3R,3′R)-1,1′-(((((2,2′-dimethyl-[1,1′-biphenyl]-3,3′-diyl)bis(azanediyl))bis (carbonyl))bis(4-cyclopropylpyridine-6,3-diyl))bis(methylene))bis(pyrrolidine-3-carboxylic acid)] | 23.1 nM | 0.2 nM

Second part, the compound after the results:

Row | EC50 [1] | IC50 [2] | Compound
8 | 1040 nM | 1.17 nM | Cc1c(NC(=O)c2cc(C3CC3)c(CN[C@H](CC(=O)O)C(=O)O)cn2)cccc1-c1cccc(NC(=O)c2cc(C3CC3)c(CN[C@H](CC(=O)O)C(=O)O)cn2)c1C [Example 118, (2R,2′R)-2,2′-((((((2,2′-dimethyl-[1,1′-biphenyl]-3,3′-diyl)bis(azanediyl))bis(carbonyl))bis (4-cyclopropylpyridine-6,3-diyl))bis (methylene))bis(azanediyl))disuccinic acid]
9 | 1760 nM | 1.43 nM | Cc1c(NC(=O)c2cc(C3CC3)c(CNC(C(=O)O)C(=O)O)cn2)cccc1-c1cccc(NC(=O)c2cc(C3CC3)c(CNC(C(=O)O)C(=O)O)cn2)c1C [Example 120, 2,2′-((((((2,2′-dimethyl-[1,1′-biphenyl]-3,3′-diyl)bis(azanediyl))bis(carbonyl))bis (4-cyclopropylpyridine-6,3-diyl))bis (methylene))bis(azanediyl))dimalonic acid]
10 | 1340 nM | 16.6 nM | CCOC(=O)CNCc1cnc(C(=O)Nc2cccc(-c3cccc(NC(=O)c4cc(C5CC5)c(CNCC(=O)OCC)cn4)c3C)c2C)cc1C1CC1 [Example 121, diethyl 2,2′-((((((2,2′-dimethyl-[1,1′-biphenyl]-3,3′-diyl)bis(azanediyl))bis(carbonyl))bis(4-cyclopropylpyridine-6,3-diyl))bis(methylene))bis(azanediyl)) diacetate]
11 | 19 nM | 1.14 nM | Cc1c(NC(=O)c2cc(C3CC3)c(CNCC(=O)O)cn2)cccc1-c1cccc(NC(=O)c2cc(C3CC3)c(CNCC(=O)O)cn2)c1C [Example 122, 2,2′-((((((2,2′-dimethyl-[1,1′-biphenyl]-3,3′-diyl)bis(azanediyl))bis(carbonyl))bis(4-cyclopropylpyridine-6,3-diyl))bis(methylene))bis(azanediyl)) diacetic acid]
12 | 14.7 nM | 1.09 nM | Cc1c(NC(=O)c2cc(C3CC3)c(CN[C@@H](C)C(=O)O)cn2)cccc1-c1cccc(NC(=O)c2cc(C3CC3)c(CN[C@@H](C)C(=O)O)cn2)c1C [Example 124, (2S,2S)-2,2′-((((((2,2′-dimethyl-[1,-1′-biphenyl]-3,3′-diyl)bis(azanediyl))bis (carbonyl))bis(4-cyclopropylpyridine-6,3-diyl))bis(methylene))bis(azanediyl)) dipropionic acid]
13 | 64 nM | 1.11 nM | Cc1c(NC(=O)c2cc(C3CC3)c(CN[C@H](C(=O)O)C(C)C)cn2)cccc1-c1cccc(NC(=O)c2cc(C3CC3)c(CN[C@H](C(=O)O)C(C)C)cn2)c1C [Example 126, (2S,2S)-2,2-((((((2,2′-dimethyl-[1,1′-biphenyl]-3,3′-diyl)bis(azanediyl))bis (carbonyl))bis(4-cyclopropylpyridine-6,3-diyl))bis(methylene))bis(azanediyl)) bis(3-methylbutanoic acid)]
14 | 77.8 nM | 1.32 nM | Cc1c(NC(=O)c2cc(C3CC3)c(CNC3(C(=O)O)CC3)cn2)cccc1-c1cccc(NC(=O)c2cc(C3CC3)c(CNC3(C(=O)O)CC3)cn2)c1C [Example 128, 1,1′-((((((2,2′-dimethyl-[1,1′-biphenyl]-3,3-diyl)bis(azanediyl))bis(carbonyl))bis (4-cyclopropylpyridine-6,3-diyl))bis (methylene))bis(azanediyl))bis (cyclopropane-1-carboxylic acid)]
15 | > 10000 nM | 102 nM | CCOC(=O)CN(C)Cc1cnc(C(=O)Nc2cccc(-c3cccc(NC(=O)c4cc(C5CC5)c(CN(C)CC(=O)OCC)cn4)c3C)c2C)cc1C1CC1 [Example 129]
16 | 600 nM | 0.99 nM | Cc1c(NC(=O)c2cc(C3CC3)c(CN(C)CC(=O)O)cn2)cccc1-c1cccc(NC(=O)c2cc(C3CC3)c(CN(C)CC(=O)O)cn2)c1C [Example 130, 2,2′-((((((2,2′-dimethyl-[1,1′-biphenyl]-3,3′-diyl)bis(azanediyl))bis (carbonyl))bis(4-cyclopropylpyridine-6,3-diyl))bis(methylene))bis (methylazanediyl))diacetic acid]
